The record followed here is patent US20190367516A1 (Bayer Pharma Aktiengesellschaft, priority 2015, published 2019).

The first test concerns the target T1, human M2 receptor (Homo sapiens, UniProt P08172).
T1 sequence (P08172 1-466): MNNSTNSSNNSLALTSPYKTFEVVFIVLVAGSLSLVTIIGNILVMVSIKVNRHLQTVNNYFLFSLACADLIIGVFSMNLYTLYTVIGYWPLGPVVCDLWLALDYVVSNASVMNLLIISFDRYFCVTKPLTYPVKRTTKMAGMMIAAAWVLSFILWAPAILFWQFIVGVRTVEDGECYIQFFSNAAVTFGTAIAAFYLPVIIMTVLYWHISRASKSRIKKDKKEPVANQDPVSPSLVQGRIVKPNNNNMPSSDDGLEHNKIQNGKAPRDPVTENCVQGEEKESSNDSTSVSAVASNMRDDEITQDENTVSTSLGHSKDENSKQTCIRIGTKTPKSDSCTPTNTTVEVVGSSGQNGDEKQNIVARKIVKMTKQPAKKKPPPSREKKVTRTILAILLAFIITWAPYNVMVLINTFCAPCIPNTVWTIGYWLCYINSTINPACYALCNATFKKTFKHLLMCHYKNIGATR
Particulars: Receptor activity EC50, M2-GIRK1/4 activation test, acetylcholine at EC20; allosteric potency; in some cases mean values from two or more determinations.
In turn, `O=C(N[C@@H](C1CC1)C(F)(F)F)c1cn(-c2c(F)cccc2Cl)c2nc(N3C[C@@H](O)CC3=O)ccc2c1=O` [Example 352, 1-(2-Chloro-6-fluorophenyl)-N-[(1S)-1-cyclopropyl-2,2,2-trifluoroethyl]-7-[(4S)-4-hydroxy-2-oxopyrrolidin-1-yl]-4-oxo-1,4-dihydro-1,8-naphthyridine-3-carboxamide] gave an EC50 of 17 nM.
The same measure, in the same setting: to `C[C@@H](COC(F)(F)F)NC(=O)c1cn(-c2c(F)cc(F)cc2F)c2nc(N3C[C@@H](O)[C@H](O)C3)ccc2c1=O` [Example 353, 7-[(3R,4R)-3,4-Dihydroxypyrrolidin-1-yl]-4-oxo-N-[(2S)-1-(trifluoromethoxy)propan-2-yl]-1-(2,4,6-trifluorophenyl)-1,4-dihydro-1,8-naphthyridine-3-carboxamide] belongs 50 nM; to `CC[C@@H](NC(=O)c1cn(-c2ccc(F)cc2F)c2nc(N3CCC4CC4(O)C3)ccc2c1=O)C(F)(F)F` (stereo partly drawn) [Example 354, 1-(2,4-Difluorophenyl)-7-[1-hydroxy-3-azabicyclo[4.1.0]hept-3-yl]-4-oxo-N-[(2R)-1,1,1-trifluorobutan-2-yl]-1,4-dihydro-1,8-naphthyridine-3-carboxamide], 38 nM; to `CC[C@@H](NC(=O)c1cn(-c2ccc(F)cc2F)c2nc(N3CC(O)C4(CC4)C3)ccc2c1=O)C(F)(F)F` (stereo partly drawn) [Example 355, 1-(2,4-Difluorophenyl)-7-[7-hydroxy-5-azaspiro[2.4]hept-5-yl]-4-oxo-N-[(2R)-1,1,1-trifluorobutan-2-yl]-1,4-dihydro-1,8-naphthyridine-3-carboxamide], 85 nM.
In the case of `CC[C@@H](NC(=O)c1cn(-c2ccc(F)cc2F)c2nc(N3CC(O)C(C)(C)C3)ccc2c1=O)C(F)(F)F` (stereo partly drawn) [Example 356, 1-(2,4-Difluorophenyl)-7-[4-hydroxy-3,3-dimethylpyrrolidin-1-yl]-4-oxo-N-[(2R)-1,1,1-trifluorobutan-2-yl]-1,4-dihydro-1,8-naphthyridine-3-carboxamide], the EC50 was found to be 94 nM.
On the same count and under the same terms, to `CC(C)(C)[C@H](NC(=O)c1cn(-c2c(F)cc(F)cc2F)c2nc(N3CCNC3=O)ccc2c1=O)C(F)(F)F` [Example 359, 4-Oxo-7-(2-oxoimidazolidin-1-yl)-N-[(2S)-1,1,1-trifluoro-3,3-dimethylbutan-2-yl]-1-(2,4,6-trifluorophenyl)-1,4-dihydro-1,8-naphthyridine-3-carboxamide] belongs 13 nM.
Still for that read-out and setting: in the case of `CC(C)(C)[C@@H](NC(=O)c1cn(-c2c(F)cc(F)cc2F)c2nc(N3CCN(CCO)C3=O)ccc2c1=O)C(F)(F)F` [Example 361, 7-[3-(2-Hydroxyethyl)-2-oxoimidazolidin-1-yl]-4-oxo-N-[(2R)-1,1,1-trifluoro-3,3-dimethylbutan-2-yl]-1-(2,4,6-trifluorophenyl)-1,4-dihydro-1,8-naphthyridine-3-carboxamide] it was 17 nM; in that of `O=C(NC12CC(F)(C1)C2)c1cn(-c2c(F)cc(F)cc2F)c2nc(N3C[C@@H](O)CC3=O)ccc2c1=O` [Example 367, N-(3-Fluorobicyclo[1.1.1]pent-1-yl)-7-[(4S)-4-hydroxy-2-oxopyrrolidin-1-yl]-4-oxo-1-(2,4,6-trifluorophenyl)-1,4-dihydro-1,8-naphthyridine-3-carboxamide], 100 nM; in that of `O=C(NC12CC(F)(C1)C2)c1cn(-c2c(F)cc(F)cc2F)c2nc(N3C[C@@H](O)[C@H](O)C3)ccc2c1=O` [Example 368, 7-[(3R,4R)-3,4-Dihydroxypyrrolidin-1-yl]-N-(3-fluorobicyclo[1.1.1]pent-1-yl)-4-oxo-1-(2,4,6-trifluorophenyl)-1,4-dihydro-1,8-naphthyridine-3-carboxamide], 91 nM.
Same read-out and setting: in the case of `O=C(N[C@@H](C1CC1)C(F)(F)F)c1cn(-c2c(F)cc(F)cc2F)c2nc(N3CCNS3(=O)=O)ccc2c1=O` [Example 373, N-[(1 S)-1-Cyclopropyl-2,2,2-trifluoroethyl]-7-(d1,1-dioxido-1,2,5-thiadiazolidin-2-yl)-4-oxo-1-(2,4,6-trifluorophenyl)-1,4-dihydro-1,8-naphthyridine-3-carboxamide] it was 89 nM; in that of `O=C(N[C@@H](C1CC1)C(F)(F)F)c1cn(-c2c(F)cc(F)cc2F)c2nc(N3CCOC3=O)ccc2c1=O` [Example 374, N-[(1S)-1-Cyclopropyl-2,2,2-trifluoroethyl]-4-oxo-7-(2-oxo-1,3-oxazolidin-1.3-yl)-1-(2,4,6-trifluorophenyl)-1,4-dihydro-1,8-naphthyridine-3-carboxamide], 49 nM.
Take `CC(C)(CC(F)(F)F)NC(=O)c1cn(-c2c(F)cc(F)cc2F)c2nc(N3CCN(CCO)C3=O)ccc2c1=O` [Example 375, 7-[3-(2-Hydroxyethyl)-2-oxoimidazolidin-1-yl]-4-oxo-N-(4,4,4-trifluoro-2-methylbutan-2-yl)-1-(2,4,6-trifluorophenyl)-1,4-dihydro-1,8-naphthyridine-3-carboxamide]: a half-maximal response (EC50) required 40 nM.
Regarding `CC(C)(CC(F)(F)F)NC(=O)c1cn(-c2c(F)cc(F)cc2F)c2nc(N3CCNC3=O)ccc2c1=O` [Example 376, 4-Oxo-7-(2-oxoimidazolidin-11-yl)-N-(4,4,4-trifluoro-2-methylbutan-2-yl)-1-(2,4,6-trifluorophenyl)-1,4-dihydro-1,8-naphthyridine-3-carboxamide], a half-maximal response (EC50) required 16 nM.
The same measure, in the same setting: to `C[C@@H](O)CNc1ccc2c(=O)c(C(=O)N[C@@H](C3CC3)C(F)(F)F)cn(-c3c(F)cc(F)cc3F)c2n1` [Example 378, N-[(1S)-1-Cyclopropyl-2,2,2-trifluoroethyl]-7-{[(2R)-2-hydroxypropyl]amino}-4-oxo-1-(2,4,6-trifluorophenyl)-1,4-dihydro-1,8-naphthyridine-3-carboxamide] belongs 81 nM.
Same read-out and setting: in the case of `CC(C)(NC(=O)c1cn(-c2c(F)cc(F)cc2F)c2nc(N3C[C@@H](O)[C@H](O)C3)ccc2c1=O)C1CC1` [Example 379, N-(2-Cyclopropylpropan-2-yl)-7-[(3R,4R)-3,4-dihydroxypyrrolidin-1-yl]-4-oxo-1-(2,4,6-trifluorophenyl)-1,4-dihydro-1,8-naphthyridine-3-carboxamide] it was 35 nM; in that of `N#CN1CCCN(c2ccc3c(=O)c(C(=O)N[C@@H](C4CC4)C(F)(F)F)cn(-c4c(F)cc(F)cc4F)c3n2)C1=O` [Example 380, 7-(3-Cyano-2-oxotetrahydropyrimidin-1(2H)-yl)-N-[(1S)-1-cyclopropyl-2,2,2-trifluoroethyl]-4-oxo-1-(2,4,6-trifluorophenyl)-1,4-dihydro-1,8-naphthyridine-3-carboxamide], 46 nM; in that of `C[C@@H]1CN(c2ccc3c(=O)c(C(=O)N[C@@H](C)COC(F)(F)F)cn(-c4c(F)cc(F)cc4F)c3n2)C(=O)N1` [Example 381, 7-[(4R)-4-Methyl-2-oxoimidazolidin-1-yl]-4-oxo-N-[(2S)-1-(trifluoromethoxy)propan-2-yl]-1-(2,4,6-trifluorophenyl)-1,4-dihydro-1,8-naphthyridine-3-carboxamide], 23 nM.
On the same count and under the same terms, to `CC(C)(NC(=O)c1cn(-c2c(F)cc(F)cc2F)c2nc(N3CCCN(CCO)C3=O)ccc2c1=O)C(F)F` [Example 382, N-(1,1-Difluoro-2-methylpropan-2-yl)-7-[3-(2-hydroxyethyl)-2-oxotetrahydropyrimidin-1(2H)-yl]-4-oxo-1-(2,4,6-trifluorophenyl)-1,4-dihydro-1,8-naphthyridine-3-carboxamide] belongs 72 nM; to `CC(C)(CC(F)(F)F)NC(=O)c1cn(-c2c(F)cc(F)cc2F)c2nc(N3CCCN(CCO)C3=O)ccc2c1=O` [Example 383, 7-[3-(2-Hydroxyethyl)-2-oxotetrahydropyrimidin-1(2H)-yl]-4-oxo-N-(4,4,4-trifluoro-2-methylbutan-2-yl)-1-(2,4,6-trifluorophenyl)-1,4-dihydro-1,8-naphthyridine-3-carboxamide], 18 nM.
The molecule `O=C(N[C@H](C1CC1)C(F)(F)F)c1cn(-c2c(Cl)cc(F)cc2Cl)c2nc(N3C[C@@H](O)CC3=O)ccc2c1=O` [Example 387, N-[(1R)-1-Cyclopropyl-2,2,2-trifluoroethyl]-1-(2,6-dichloro-4-fluorophenyl)-7-[(4S)-4-hydroxy-2-oxopyrrolidin-1-yl]-4-oxo-1,4-dihydro-1,8-naphthyridine-3-carboxamide] displayed an EC50 of 42 nM.
The molecule `CC[C@@H](NC(=O)c1cn(-c2c(Cl)cc(F)cc2Cl)c2nc(N3C[C@@H](O)CC3=O)ccc2c1=O)C(F)(F)F` [Example 388, 1-(2,6-Dichloro-4-fluorophenyl)-7-[(4S)-4-hydroxy-2-oxopyrrolidin-1-yl]-4-oxo-N-[(2R)-1,1,1-trifluorobutan-2-yl]-1,4-dihydro-1,8-naphthyridine-3-carboxamide] came in with an EC50 of 52 nM.
Same read-out and setting: in the case of `CC[C@H](NC(=O)c1cn(-c2c(Cl)cc(F)cc2Cl)c2nc(N3C[C@@H](O)CC3=O)ccc2c1=O)C(F)(F)F` [Example 389, 1-(2,6-Dichloro-4-fluorophenyl)-7-[(4S)-4-hydroxy-2-oxopyrrolidin-1-yl]-4-oxo-N-[(2S)-1,1,1-trifluorobutan-2-yl]-1,4-dihydro-1,8-naphthyridine-3-carboxamide] it was 38 nM.

Still in this test, the particulars now being: read-out: Efficiency.
For `CC[C@@H](NC(=O)c1cn(-c2c(Cl)cc(F)cc2Cl)c2nc(N3C[C@@H](O)CC3=O)ccc2c1=O)C(F)(F)F` [Example 388, 1-(2,6-Dichloro-4-fluorophenyl)-7-[(4S)-4-hydroxy-2-oxopyrrolidin-1-yl]-4-oxo-N-[(2R)-1,1,1-trifluorobutan-2-yl]-1,4-dihydro-1,8-naphthyridine-3-carboxamide], the Emax came to 89%.
On the same count and under the same terms, to `CC[C@H](NC(=O)c1cn(-c2c(Cl)cc(F)cc2Cl)c2nc(N3C[C@@H](O)CC3=O)ccc2c1=O)C(F)(F)F` [Example 389, 1-(2,6-Dichloro-4-fluorophenyl)-7-[(4S)-4-hydroxy-2-oxopyrrolidin-1-yl]-4-oxo-N-[(2S)-1,1,1-trifluorobutan-2-yl]-1,4-dihydro-1,8-naphthyridine-3-carboxamide] belongs 85.5%.

The EC50 is the concentration needed to bring the measured effect to its halfway point. Read a low EC50 as an effect from little substance.
